The source of these data is ChEMBL document CHEMBL2073786, “MRP2, a human conjugate export pump, is present and transports fluo 3 into apical vacuoles of Hep G2 cells” (Am J Physiol Gastrointest Liver Physiol, 2000).

The target of the data set is ATP-binding cassette sub-family C member 2 (Homo sapiens, UniProt Q92887). Kind of data set: TP_TRANSPORTER: secretion into apical vacuoles in Hep G2 cells. The class given is functional, cell-based. The settings on record: hepg2.
Sequence of ATP-binding cassette sub-family C member 2 (Q92887 whole entry): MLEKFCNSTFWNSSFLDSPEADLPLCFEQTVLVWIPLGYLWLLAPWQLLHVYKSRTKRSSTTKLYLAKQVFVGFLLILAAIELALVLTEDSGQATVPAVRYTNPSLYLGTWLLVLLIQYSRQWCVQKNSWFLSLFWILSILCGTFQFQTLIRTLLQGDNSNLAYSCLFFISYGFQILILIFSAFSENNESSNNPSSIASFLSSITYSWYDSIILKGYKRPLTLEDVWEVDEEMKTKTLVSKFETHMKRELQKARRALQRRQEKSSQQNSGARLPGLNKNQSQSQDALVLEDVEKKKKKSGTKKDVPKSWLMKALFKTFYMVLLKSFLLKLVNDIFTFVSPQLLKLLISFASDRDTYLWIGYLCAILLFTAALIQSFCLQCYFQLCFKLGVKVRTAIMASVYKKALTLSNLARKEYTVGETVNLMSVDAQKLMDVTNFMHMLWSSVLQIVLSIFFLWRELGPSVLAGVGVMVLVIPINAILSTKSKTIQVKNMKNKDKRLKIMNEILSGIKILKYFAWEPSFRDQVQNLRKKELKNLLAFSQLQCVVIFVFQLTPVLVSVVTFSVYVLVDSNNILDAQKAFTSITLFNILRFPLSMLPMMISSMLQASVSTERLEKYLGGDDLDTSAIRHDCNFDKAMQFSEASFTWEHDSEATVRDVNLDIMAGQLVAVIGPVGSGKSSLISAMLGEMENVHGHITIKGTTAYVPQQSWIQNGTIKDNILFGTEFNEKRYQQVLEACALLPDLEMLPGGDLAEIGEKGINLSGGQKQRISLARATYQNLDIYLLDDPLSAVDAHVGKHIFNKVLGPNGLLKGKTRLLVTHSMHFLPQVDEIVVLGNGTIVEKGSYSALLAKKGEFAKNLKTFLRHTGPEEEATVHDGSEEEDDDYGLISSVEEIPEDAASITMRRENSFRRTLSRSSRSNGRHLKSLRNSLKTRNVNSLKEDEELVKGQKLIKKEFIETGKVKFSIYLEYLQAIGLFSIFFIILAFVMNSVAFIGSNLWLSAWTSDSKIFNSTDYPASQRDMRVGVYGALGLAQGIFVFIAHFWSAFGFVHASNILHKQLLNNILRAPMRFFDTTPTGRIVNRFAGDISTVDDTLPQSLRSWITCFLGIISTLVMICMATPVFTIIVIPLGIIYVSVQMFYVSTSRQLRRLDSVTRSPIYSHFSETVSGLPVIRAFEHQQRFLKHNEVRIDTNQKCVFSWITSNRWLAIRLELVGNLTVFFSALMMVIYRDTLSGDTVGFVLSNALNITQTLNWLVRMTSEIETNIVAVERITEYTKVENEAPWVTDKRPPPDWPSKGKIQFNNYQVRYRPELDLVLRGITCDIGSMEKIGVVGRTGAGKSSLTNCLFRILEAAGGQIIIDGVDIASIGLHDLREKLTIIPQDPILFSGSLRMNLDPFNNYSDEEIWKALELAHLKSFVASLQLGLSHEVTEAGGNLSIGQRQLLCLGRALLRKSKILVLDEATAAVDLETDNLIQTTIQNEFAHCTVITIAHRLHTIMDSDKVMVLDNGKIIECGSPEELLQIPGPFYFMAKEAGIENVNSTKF

Consider `CC(CCC(=O)NC(CCCCNc1ccc([N+](=O)[O-])c2nonc12)COO)[C@H]1CC[C@H]2[C@@H]3[C@H](O)CC4C[C@H](O)CC[C@]4(C)[C@H]3CC[C@]12C` (some centres undefined), for which the Activity entry is “substrate [+]”.
Take `CC(CCC(=O)NCC(=O)Nc1ccc(-c2c3ccc(=O)cc-3oc3cc(O)ccc23)c(C(=O)O)c1)[C@H]1CC[C@H]2[C@@H]3[C@H](O)CC4C[C@H](O)CC[C@]4(C)[C@H]3C[C@H](O)[C@]12C` (some centres undefined): the Activity entry was “substrate [+]”.
Next, `Cc1ccc(N(CC(=O)O)CC(=O)O)c(OCCOc2cc(-c3c4cc(Cl)c(=O)cc-4oc4cc(O)c(Cl)cc34)ccc2N(CC(=O)O)CC(=O)O)c1`: “substrate [+]”; `O=C1OC2(c3ccc(O)cc3Oc3cc(O)ccc32)c2ccccc21` [FLUORESCEIN]: “substrate [+]”.
